These are literature values, as cited in patent US20230111350A1, “Opthalmic Compositions for Treating Coronaviruses” (priority 2020, published 2023).

Some results are limits rather than exact numbers.

One series concerns SARS-CoV-2. The following applies: relative to chloroquine.
For series [1] the following is noted: relative to chloroquine.
For series [2] the following is noted: systemic administration; dependent on daily dose by weight.

Take `CCN(CC)CCCC(C)Nc1ccnc2cc(Cl)ccc12` (stereo not shown) [chloroquine]: the “toxicity in ARPE-19 cells” value in the series with ARPE-19 is “vacuole formation and cell death”.

Take `Oc1c(I)cc(Cl)c2cccnc12` [clioquinol]: in the series on ARPE-19 (co-treatment with chloroquine, zinc-dependent, by reversing autophagy arrest), the “effect on chloroquine-associated toxicity in ARPE-19 cells” value was “attenuated the chloroquine-associated toxicity”.

Consider `CCN(CCO)CCCC(C)Nc1ccnc2cc(Cl)ccc12` (stereo not shown) [hydroxychloroquine], for which the “percentage of patients testing positive for COVID-19” value in the series on COVID-19 (after 6 days, 600 mg/day oral, untreated 90%) is on record as 25%. In addition, the viral load result in the series on COVID-19 (oral administration) was “strong reduction in viral load”. The “potency at inhibiting SARS-CoV-2 in vitro” value in the series on SARS-CoV-2 is reported as “more potent than chloroquine”. Also, the toxicity profile result in series [1] is “reduced toxicity profile”. Also, in series [2], the “prevalence of retinal toxicity” value is on record as ≤ 7.5%.
